From the supplement of paper PMC10307832

Assays:
Assay in all cases: relative viability (nuclei count vs DMSO), 5 days (fraction); higher = more cells survive
[1] = compound: COc1cc([C@@H]2c3cc4c(cc3[C@@H](O[C@@H]3O[C@@H]5CO[C@@H](C)O[C@H]5[C@H](O)[C@H]3O)[C@H]3COC(=O)[C@H]23)OCO4)cc(OC)c1O [Etoposide] + CC1(C)CCC(c2ccc(Cl)cc2)=C(CN2CCN(c3ccc(C(=O)NS(=O)(=O)c4ccc(N[C@H](CCN5CCOCC5)CSc5ccccc5)c(S(=O)(=O)C(F)(F)F)c4)cc3)CC2)C1 [Navitoclax] (partner 0.5 µM)
Procedure, shortened: (§1)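 One day after seeding in 1536-well plates, lung cancer cell lines were dosed by pin tool. Dosing was either single-drug or a fixed anchor-drug dose plus five library-drug doses (not always all listed) in √10 steps. After 5 days, nuclei were stained in one fix-and-stain step and counted on 4× images, and relative viability is the nuclei count of treated wells over that of vehicle wells, given as the median of duplicate plates.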

[2] = compound: CC1=C(N=C(N=C1N)[C@H](CC(=O)N)NC[C@@H](C(=O)N)N)C(=O)N[C@@H]([C@H](C2=CN=CN2)OC3C(C(C(C(O3)CO)O)O)OC4C(C(C(C(O4)CO)O)OC(=O)N)O)C(=O)N[C@H](C)[C@H]([C@H](C)C(=O)N[C@@H]([C@@H](C)O)C(=O)NCCC5=NC(=CS5)C6=NC(=CS6)C(=O)NCCC[S+](C)C)O [Bleomycin] + COc1cccc2cc(-c3nc([C@H]4CC[C@H](C(=O)O)CC4)n4ncnc(N)c34)[nH]c12 [OSI-027] (partner 0.5 µM); conditions: main component drawn
Procedure, shortened: as §1

[3] = compound: CC1=C(N=C(N=C1N)[C@H](CC(=O)N)NC[C@@H](C(=O)N)N)C(=O)N[C@@H]([C@H](C2=CN=CN2)OC3C(C(C(C(O3)CO)O)O)OC4C(C(C(C(O4)CO)O)OC(=O)N)O)C(=O)N[C@H](C)[C@H]([C@H](C)C(=O)N[C@@H]([C@@H](C)O)C(=O)NCCC5=NC(=CS5)C6=NC(=CS6)C(=O)NCCC[S+](C)C)O [Bleomycin] + CC1(C)CCC(c2ccc(Cl)cc2)=C(CN2CCN(c3ccc(C(=O)NS(=O)(=O)c4ccc(N[C@H](CCN5CCOCC5)CSc5ccccc5)c(S(=O)(=O)C(F)(F)F)c4)cc3)CC2)C1 [Navitoclax] (partner 0.5 µM); conditions: main component drawn
Procedure, shortened: as §1

[4] = compound: COc1cc([C@@H]2c3cc4c(cc3[C@@H](O[C@@H]3O[C@@H]5CO[C@@H](C)O[C@H]5[C@H](O)[C@H]3O)[C@H]3COC(=O)[C@H]23)OCO4)cc(OC)c1O [Etoposide] + CS(=O)(=O)CCNCc1ccc(-c2ccc3ncnc(Nc4ccc(OCc5cccc(F)c5)c(Cl)c4)c3c2)o1 [Lapatinib] (partner 2 µM)
Procedure, shortened: as §1

UMC-11
relative viability ([1]; first compound 0.01 µM): 0.344 | relative viability ([1]; first compound 0.03162 µM): 0.307 | relative viability ([1]; first compound 0.3162 µM): 0.193 | relative viability ([1]; first compound 1 µM): 0.155 | relative viability ([2]; first compound 0.01 µM): 0.403 | relative viability ([2]; first compound 0.03162 µM): 0.497 | relative viability ([2]; first compound 0.1 µM): 0.482 | relative viability ([2]; first compound 0.3162 µM): 0.393 | relative viability ([2]; first compound 1 µM): 0.353 | relative viability ([3]; first compound 0.01 µM): 0.376 | relative viability ([3]; first compound 0.03162 µM): 0.264 | relative viability ([3]; first compound 0.1 µM): 0.286 | relative viability ([3]; first compound 0.3162 µM): 0.22 | relative viability ([3]; first compound 1 µM): 0.205 | relative viability ([4]; first compound 0.01 µM): 0.973 | relative viability ([4]; first compound 0.03162 µM): 1.05 | relative viability ([4]; first compound 0.1 µM): 0.407 | relative viability ([4]; first compound 0.3162 µM): 0.46 | relative viability ([4]; first compound 1 µM): 0.239
